{"source": "patent US20020132320A1", "about": "“Glycoconjugate synthesis using a pathway-engineered organism” (priority 2001, published 2002)", "origin": "cited, not measured here", "key": {"[1]": {"tested_on": "UDP-GalNAc pyrophosphorylase", "details": "substrate of purified UDP-GalNAc pyrophosphorylase"}, "[2]": {"details": "relative to morphine"}, "[3]": {"target": "T1, CMP-NeuNAc synthetase (Escherichia coli O18:K1:H7, UniProt P13266)", "T1 construct": "host or cells: E. coli K1", "details": "enzyme purified from E. coli K1; read-out: apparent Km"}, "[4]": {"target": "Hyaluronan synthase (spHAS) (Streptococcus pyogenes, UniProt P0C0H0)"}, "[5]": {"target": "E. coli NanA (Escherichia coli, UniProt P0A6L4)", "details": "cleavage reaction"}}}
{"smiles": "CC(=O)NC1C(OP(=O)(O)O)OC(CO)C(O)C1O", "note": "(stereo not shown) [GlcNAc-1-P]", "values": [{"measurement": "Km", "setting": "[1]", "result": 1100, "unit": "µM"}]}
{"smiles": "CN1CC[C@]23c4c5ccc(O)c4O[C@H]2[C@@H](O[C@@H]2O[C@H](C(=O)O)[C@@H](O)[C@H](O)[C@H]2O)C=C[C@H]3[C@H]1C5", "note": "[morphine-6-O-glucuronide]", "values": [{"measurement": "times more active than morphine", "setting": "[2]", "result": 50, "unit": "times"}]}
{"smiles": "Nc1ccn([C@@H]2O[C@H](COP(=O)(O)OP(=O)(O)OP(=O)(O)O)[C@@H](O)[C@H]2O)c(=O)n1", "note": "[CTP, Cytosine 5′-triphosphate]", "values": [{"measurement": "Km", "setting": "[3]", "result": 310, "unit": "µM"}]}
{"smiles": "O=C(O)[C@H]1O[C@H](OP(=O)(O)OP(=O)(O)OC[C@H]2O[C@@H](n3ccc(=O)[nH]c3=O)[C@H](O)[C@@H]2O)[C@H](O)[C@@H](O)[C@@H]1O", "note": "[UDP-GlcA, uridine 5′-diphosphoglucuronic acid]", "values": [{"measurement": "Km", "setting": "[4]", "result": "40 ± 4", "unit": "µM"}]}
{"smiles": "CC(=O)N[C@H]1[C@H]([C@H](O)[C@H](O)CO)OC(O)(C(=O)O)C[C@@H]1O", "note": "(stereo partly shown) [NeuNAc, N-acetylneuraminic acid]", "values": [{"measurement": "Km", "setting": "[5]", "result": 4300, "unit": "µM"}]}
{"smiles": "CC(=O)N[C@H]1C(OP(=O)(O)O)O[C@H](CO)[C@H](O)[C@@H]1O", "note": "(stereo partly shown) [GalNAc-1-P, N-acetylgalactosamine-1-phosphate]", "values": [{"measurement": "Km", "setting": "[1]", "result": 290, "unit": "µM"}]}
{"smiles": "CC(=O)N[C@H]1[C@@H](OP(=O)(O)OP(=O)(O)OC[C@H]2O[C@@H](n3ccc(=O)[nH]c3=O)[C@H](O)[C@@H]2O)O[C@H](CO)[C@@H](O)[C@@H]1O", "note": "[UDP-GlcNAc, uridine 5′-diphospho-N-acetylglucosamine]", "values": [{"measurement": "Km", "setting": "[4]", "result": "149 ± 3", "unit": "µM"}]}
